Test results reported in patent publication US10870875B2, “Metalloprotein compositions” (Commonwealth Scientific and Industrial Research Organisation, priority 2014, dated 2020).

Tests used:
[1] = molecular target: T1, recombinant honeybee (Apis mellifera) silk protein AmelF3, unmodified, SEQ ID NO: 39 (Apis mellifera, UniProt A0ACM8QI31); assay: Binding of macrocycles/chelates to AmelF3 sponges or films (colour retained after washing, UV/Vis); conditions: sponge or film, qualitative
T1 construct: sponges and films
T1 sequence (A0ACM8QI31 entry or part of it): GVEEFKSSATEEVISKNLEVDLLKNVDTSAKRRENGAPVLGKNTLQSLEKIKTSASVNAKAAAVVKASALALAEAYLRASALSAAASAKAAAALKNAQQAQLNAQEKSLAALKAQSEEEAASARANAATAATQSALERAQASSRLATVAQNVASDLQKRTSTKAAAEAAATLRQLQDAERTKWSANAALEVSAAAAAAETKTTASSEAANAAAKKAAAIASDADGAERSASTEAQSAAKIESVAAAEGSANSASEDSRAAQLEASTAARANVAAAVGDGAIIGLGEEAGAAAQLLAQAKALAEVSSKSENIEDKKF
Protocol: (§1) Full length, recombinant honeybee silk proteins (AmelF3) without affinity purification tags, were produced by fermentation in Escherichia coli as described in Weisman et al. (2010). Full length, recombinant Weaver Ant/Green Ant (Oecophylla smaragdina) silk proteins (GA1, GA2, GA3, GA4) without affinity purification tags, were produced by fermentation in Escherichia coli following the same procedures as outlined in Weisman et al. (2010).
AmelF3 sponges were prepared as described in example 1. […] The colour change observed with honeybee silk indicates a change in the coordination of the iron metal centre within the haem group, producing a material with a similar coordination to red haemoglobin. The colour was not removed by extensive washing with 70% methanol, 0.1M HCl or 0.1M NaCl.
An embodiment of the composition of the present invention was formed by co-drying a solution of AmelF3 and haem b. Briefly, 2 mg haem b and 20 mg AmelF3 silk sponge was dissolved in 1 mL of HFIP overnight at room temperature. The solution was aliquoted into either a cuvette or 24-well plate and dried at room temperature. The dried film was soaked overnight in 70% methanol to make the film insoluble in water.
(§2) Alternatively, haem b was ‘leached’ into a pre-formed film. The AmelF3 material was formed as described in example 1. The silk material was soaked in a solution of haem b (0.5 mg/mL; haem b in excess) in 70% methanol solution for between 1 and 48 hours followed by washing with 70% methanol to remove any unbound haem b and dried at room temperature.
AmelF3 films with different ratios of haem b to AmelF3 were prepared by co-drying haem and AmelF3 HFIP solutions. At low haem loadings (haem:protein molar ratios of 1:1 and 1:2), a sharp Soret peak at 404 nm was observed, indicative of all the haem being coordinated (FIG. 3). As the concentration of haem b relative to the protein was increased, the Soret peak broadened and shifted to lower wavelengths indicating an increase in the amount of uncoordinated haem (FIG. 3).
The ability of sponges generated from recombinant AmelF3 to bind a range of macrocyles was tested by adding a solution of the macrocmacrocycle containing an excess of the macrocycle to be tested to the AmelF3 sponge and observing the colour of the sponge and whether the sponge retained colour after washing. The strength of macrocycle binding was assessed qualitatively by assessing the intensity of the colour retained by the sponge after washing. Strong binding to the sponge refers to the finding that the macrocycle cannot be washed out with aqueous methanol, organic solvents, 0.1 M HCl or 0.1 M NaOH.
Films generated from recombinant honeybee silk protein AmelF3 containing dicyanocobyrinic acid heptamethyl ester were prepared as described in example 3. UV/Vis spectrum were recorded for a film generated from recombinant AmelF3 containing dicyanocobyrinic acid heptamethyl ester and a solution of dicyanocobyrinic acid heptamethyl ester without AmelF3 (FIG. 8).

[2] = molecular target: T2, Apis mellifera AmelF3 (SEQ ID NO: 39) variant Tyr76His (Y76H) (Apis mellifera, UniProt A0ACM8QI31, Y95H); assay: Binding of haem b to AmelF3 Tyr76His; conditions: UV/Vis, in solution and film
T2 construct: solution and film
T2 sequence (A0ACM8QI31 20-335 Y95H): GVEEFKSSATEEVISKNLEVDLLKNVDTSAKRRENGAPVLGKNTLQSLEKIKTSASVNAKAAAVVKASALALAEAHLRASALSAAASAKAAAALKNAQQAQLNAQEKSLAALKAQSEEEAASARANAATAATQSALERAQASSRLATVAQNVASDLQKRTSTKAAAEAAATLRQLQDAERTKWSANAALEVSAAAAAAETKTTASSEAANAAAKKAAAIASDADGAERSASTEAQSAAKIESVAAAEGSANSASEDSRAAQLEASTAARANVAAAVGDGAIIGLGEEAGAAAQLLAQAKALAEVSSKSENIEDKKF
Protocol: Site directed mutagenesis of honeybee silk proteins was carried using methods known to the person skilled in the art. For example, to generate AmelF3 Tyr76Ala, the forward primer 5′-[…]-3′ (SEQ ID NO: 80) with the corresponding reverse primer was employed and site directed mutagenesis was carried out using Pfx 50 DNA polymerase from Invitrogen following the Pfx50 manufactures instructions. All AmelF3 mutants were expressed and purified using a similar procedure as the unmodified AmelF3 silk protein. To generate AmelF3 Tyr76His, the forward primer 5′-[…]-3′ (SEQ ID NO: 81) with the corresponding reverse primer was employed. To generate AmelF3 Ala97His, the forward primer 5′-[…]-3′ (SEQ ID NO: 82) was used.
The present inventors also mutated Tyr76 to a histidine and investigated the effect the single amino acid substitution had on binding to haem b. […] The sharp peak observed at around 400 nm is indicative of the coordination of an amino acid residue to the iron haem centre.
A coordinating His residue (His97) was introduced into AmelF3 with Y76H substitution in the a-position of the coiled-coil.

[3] = molecular target: T3, Oecophylla smaragdina silk fibroin 3 (GA3), SEQ ID NO: 11 (Oecophylla smaragdina, UniProt A8IM91); assay: Haem b leached into green ant silk GA3 film; assay type: binding; conditions: signal at around 400 nm
T3 construct: film
T3 sequence (A8IM91 20-395): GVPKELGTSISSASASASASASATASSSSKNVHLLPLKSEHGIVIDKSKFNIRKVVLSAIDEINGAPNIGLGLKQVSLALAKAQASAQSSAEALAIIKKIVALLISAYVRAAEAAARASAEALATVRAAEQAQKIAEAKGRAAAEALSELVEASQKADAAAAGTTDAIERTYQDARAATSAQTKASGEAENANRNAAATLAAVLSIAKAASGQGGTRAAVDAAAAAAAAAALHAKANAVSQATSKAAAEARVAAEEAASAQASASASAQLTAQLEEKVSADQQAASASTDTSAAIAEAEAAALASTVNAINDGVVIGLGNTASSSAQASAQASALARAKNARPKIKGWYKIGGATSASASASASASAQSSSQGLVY
From the text: as §1, §2
(§3) Transparent films from the Green Ant (Oecophylla smaragdina) (GA1-4) silk proteins were prepared as described above. Haem b in 70% methanol was leached into the preformed Green Ant silk film as described at Example 3. UV/Vis spectra were collected for Green Ant silk film after haem b had been leached.

[4] = molecular target: T4, Oecophylla smaragdina silk fibroin 1 (GA1), SEQ ID NO: 9 (Oecophylla smaragdina, UniProt A8IM81); assay: Haem b leached into green ant silk GA1 film; assay type: binding; conditions: signal at around 400 nm
T4 construct: film
T4 sequence (A8IM81 20-391): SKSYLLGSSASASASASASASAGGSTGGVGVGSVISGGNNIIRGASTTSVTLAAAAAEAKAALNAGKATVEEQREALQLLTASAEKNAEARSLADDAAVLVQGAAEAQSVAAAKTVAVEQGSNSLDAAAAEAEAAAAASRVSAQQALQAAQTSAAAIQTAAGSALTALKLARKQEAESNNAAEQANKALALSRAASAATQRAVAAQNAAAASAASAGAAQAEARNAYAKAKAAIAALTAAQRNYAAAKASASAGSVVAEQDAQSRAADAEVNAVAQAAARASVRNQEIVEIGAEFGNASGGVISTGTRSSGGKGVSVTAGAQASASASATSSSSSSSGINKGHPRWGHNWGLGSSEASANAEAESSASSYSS
From the text: as §1, §2, §3

C=CC1=C(C)c2cc3[nH]c(cc4nc(cc5[nH]c(cc1n2)c(C)c5CCC(=O)O)C(CCC(=O)O)=C4C)c(C)c3C=C.[Fe] [haem b]
binding to silk protein (in words) [1]: strongly bound
binding to silk protein (in words) [2]: bound haem b via a co-ordinate bond
haem binding (in words) [3]: strongly bound haem
haem binding (in words) [4]: strongly bound haem
